Data published in PubChem BioAssay (NCI).
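The compound was tested at five concentrations on cells cultured in 96-well plates, with a 48-hour exposure period. At the GI50, growth is halved. At the TGI there is no net growth.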

Key:
Assay in all cases: inhibition of tumour cell growth, NCI panel, 48 h
DLD-1 colon = system: DLD-1 colon
M19-MEL melanoma = system: M19-MEL melanoma
HCT-116 colon = system: HCT-116 colon
KM20L2 colon = system: KM20L2 colon
MALME-3M melanoma = system: MALME-3M melanoma
786-0 renal = system: 786-0 renal
ACHN renal = system: ACHN renal
SNB-19 CNS = system: SNB-19 CNS
SN12C renal = system: SN12C renal
DMS 114 small cell lung = system: DMS 114 small cell lung
HL-60(TB) leukemia = system: HL-60(TB) leukemia
A498 renal = system: A498 renal
HCC-2998 colon = system: HCC-2998 colon
UACC-62 melanoma = system: UACC-62 melanoma
LXFL 529 NSCLC = system: LXFL 529 NSCLC
IGROV1 ovarian = system: IGROV1 ovarian
NCI-H23 lung = system: NCI-H23 lung
OVCAR-3 ovarian = system: OVCAR-3 ovarian
HCT-15 colon = system: HCT-15 colon
SNB-75 CNS = system: SNB-75 CNS
U251 CNS = system: U251 CNS
EKVX NSCLC = system: EKVX NSCLC
SNB-78 CNS = system: SNB-78 CNS
HOP-92 NSCLC = system: HOP-92 NSCLC
OVCAR-5 ovarian = system: OVCAR-5 ovarian
UO-31 renal = system: UO-31 renal
HOP-62 NSCLC = system: HOP-62 NSCLC
KM12 colon = system: KM12 colon
A549 NSCLC = system: A549 NSCLC
NCI-H460 lung = system: NCI-H460 lung
M14 melanoma = system: M14 melanoma
K-562 leukemia = system: K-562 leukemia
SW-620 colon = system: SW-620 colon
NCI-H226 lung = system: NCI-H226 lung
OVCAR-8 ovarian = system: OVCAR-8 ovarian
HT29 colon = system: HT29 colon
COLO 205 colon = system: COLO 205 colon
RPMI-8226 leukemia = system: RPMI-8226 leukemia
TK-10 renal = system: TK-10 renal
MOLT-4 leukemia = system: MOLT-4 leukemia
SK-MEL-28 melanoma = system: SK-MEL-28 melanoma
SF-295 CNS = system: SF-295 CNS
NCI-H522 lung = system: NCI-H522 lung
SK-OV-3 ovarian = system: SK-OV-3 ovarian
SK-MEL-5 melanoma = system: SK-MEL-5 melanoma
LOX IMVI melanoma = system: LOX IMVI melanoma
DMS 273 small cell lung = system: DMS 273 small cell lung
CCRF-CEM leukemia = system: CCRF-CEM leukemia
UACC-257 melanoma = system: UACC-257 melanoma
SK-MEL-2 melanoma = system: SK-MEL-2 melanoma
SF-539 CNS = system: SF-539 CNS
SF-268 CNS = system: SF-268 CNS
OVCAR-4 ovarian = system: OVCAR-4 ovarian
MCF7 breast = system: MCF7 breast
MDA-N = system: MDA-N
SR leukemia = system: SR leukemia
RXF-631 renal = system: RXF-631 renal
MDA-MB-231 breast = system: MDA-MB-231 breast
DU-145 prostate = system: DU-145 prostate
CAKI-1 renal = system: CAKI-1 renal

Structure (SMILES): COc1cccc(C2CC(C)=Nc3c(ccc4c3C(=O)c3ccccc3C4=O)N2)c1O (stereo not given)
- TGI (DLD-1 colon): > 100 µM
- TGI (M19-MEL melanoma): > 100 µM
- TGI (HCT-116 colon): > 100 µM
- TGI (KM20L2 colon): > 100 µM
- TGI (MALME-3M melanoma): > 100 µM
- TGI (786-0 renal): > 100 µM
- TGI (ACHN renal): > 100 µM
- TGI (SNB-19 CNS): > 100 µM
- TGI (SN12C renal): > 100 µM
- TGI (DMS 114 small cell lung): > 100 µM
- TGI (HL-60(TB) leukemia): > 100 µM
- TGI (A498 renal): > 100 µM
- TGI (HCC-2998 colon): > 100 µM
- TGI (UACC-62 melanoma): > 100 µM
- TGI (LXFL 529 NSCLC): > 100 µM
- TGI (IGROV1 ovarian): > 100 µM
- TGI (NCI-H23 lung): > 100 µM
- TGI (OVCAR-3 ovarian): 95.1 µM
- TGI (HCT-15 colon): > 100 µM
- TGI (SNB-75 CNS): > 100 µM
- TGI (U251 CNS): > 100 µM
- TGI (EKVX NSCLC): > 100 µM
- TGI (SNB-78 CNS): > 100 µM
- TGI (HOP-92 NSCLC): > 100 µM
- TGI (OVCAR-5 ovarian): > 100 µM
- TGI (UO-31 renal): > 100 µM
- TGI (HOP-62 NSCLC): > 100 µM
- TGI (KM12 colon): > 100 µM
- TGI (A549 NSCLC): > 100 µM
- TGI (NCI-H460 lung): > 100 µM
- TGI (M14 melanoma): > 100 µM
- TGI (K-562 leukemia): > 100 µM
- TGI (SW-620 colon): > 100 µM
- TGI (NCI-H226 lung): > 100 µM
- TGI (OVCAR-8 ovarian): > 100 µM
- TGI (HT29 colon): > 100 µM
- TGI (COLO 205 colon): > 100 µM
- TGI (RPMI-8226 leukemia): > 100 µM

Structure (SMILES): N.N.N.N.[Cl-].[Co+3].[N-]=[N+]=[N-].[N-]=[N+]=[N-]
- GI50 (TK-10 renal): > 100 µM
- TGI (TK-10 renal): > 100 µM
- GI50 (DLD-1 colon): > 100 µM
- TGI (DLD-1 colon): > 100 µM
- GI50 (HCT-116 colon): > 100 µM
- TGI (HCT-116 colon): > 100 µM
- GI50 (KM20L2 colon): > 100 µM
- TGI (KM20L2 colon): > 100 µM
- GI50 (MALME-3M melanoma): 57.9 µM
- TGI (MALME-3M melanoma): > 100 µM
- GI50 (786-0 renal): > 100 µM
- TGI (786-0 renal): > 100 µM
- GI50 (ACHN renal): 50.5 µM
- TGI (ACHN renal): > 100 µM
- GI50 (SNB-19 CNS): > 100 µM
- TGI (SNB-19 CNS): > 100 µM
- GI50 (MOLT-4 leukemia): 38.6 µM
- TGI (MOLT-4 leukemia): > 100 µM
- GI50 (SN12C renal): > 100 µM
- TGI (SN12C renal): > 100 µM
- GI50 (SK-MEL-28 melanoma): 60.3 µM
- TGI (SK-MEL-28 melanoma): > 100 µM
- GI50 (HL-60(TB) leukemia): 74.3 µM
- TGI (HL-60(TB) leukemia): > 100 µM
- GI50 (A498 renal): > 100 µM
- TGI (A498 renal): > 100 µM
- GI50 (HCC-2998 colon): > 100 µM
- TGI (HCC-2998 colon): > 100 µM
- GI50 (UACC-62 melanoma): > 100 µM
- TGI (UACC-62 melanoma): > 100 µM
- GI50 (LXFL 529 NSCLC): > 100 µM
- TGI (LXFL 529 NSCLC): > 100 µM
- GI50 (IGROV1 ovarian): > 100 µM
- TGI (IGROV1 ovarian): > 100 µM
- GI50 (NCI-H23 lung): > 100 µM
- TGI (NCI-H23 lung): > 100 µM
- GI50 (OVCAR-3 ovarian): > 100 µM
- TGI (OVCAR-3 ovarian): > 100 µM
- GI50 (HCT-15 colon): > 100 µM
- TGI (HCT-15 colon): > 100 µM
- GI50 (SNB-75 CNS): > 100 µM
- TGI (SNB-75 CNS): > 100 µM
- GI50 (SF-295 CNS): > 100 µM
- TGI (SF-295 CNS): > 100 µM
- GI50 (NCI-H522 lung): > 100 µM
- TGI (NCI-H522 lung): > 100 µM
- GI50 (U251 CNS): > 100 µM
- TGI (U251 CNS): > 100 µM
- GI50 (EKVX NSCLC): > 100 µM
- TGI (EKVX NSCLC): > 100 µM
- GI50 (SK-OV-3 ovarian): > 100 µM
- TGI (SK-OV-3 ovarian): > 100 µM
- GI50 (SNB-78 CNS): > 100 µM
- TGI (SNB-78 CNS): > 100 µM
- GI50 (HOP-92 NSCLC): > 100 µM
- TGI (HOP-92 NSCLC): > 100 µM
- GI50 (SK-MEL-5 melanoma): > 100 µM
- TGI (SK-MEL-5 melanoma): > 100 µM
- GI50 (OVCAR-5 ovarian): > 100 µM
- TGI (OVCAR-5 ovarian): > 100 µM
- GI50 (UO-31 renal): 41.3 µM
- TGI (UO-31 renal): > 100 µM
- GI50 (HOP-62 NSCLC): > 100 µM
- TGI (HOP-62 NSCLC): > 100 µM
- GI50 (KM12 colon): > 100 µM
- TGI (KM12 colon): > 100 µM
- GI50 (LOX IMVI melanoma): > 100 µM
- TGI (LOX IMVI melanoma): > 100 µM
- GI50 (A549 NSCLC): > 100 µM
- TGI (A549 NSCLC): > 100 µM
- GI50 (DMS 273 small cell lung): > 100 µM
- TGI (DMS 273 small cell lung): > 100 µM
- GI50 (CCRF-CEM leukemia): 91.6 µM
- TGI (CCRF-CEM leukemia): > 100 µM
- GI50 (NCI-H460 lung): > 100 µM
- TGI (NCI-H460 lung): > 100 µM
- GI50 (UACC-257 melanoma): > 100 µM
- TGI (UACC-257 melanoma): > 100 µM
- GI50 (M14 melanoma): > 100 µM
- TGI (M14 melanoma): > 100 µM
- GI50 (K-562 leukemia): > 100 µM
- TGI (K-562 leukemia): > 100 µM
- GI50 (SK-MEL-2 melanoma): > 100 µM
- TGI (SK-MEL-2 melanoma): > 100 µM
- GI50 (SF-539 CNS): 48.8 µM
- TGI (SF-539 CNS): > 100 µM
- GI50 (SW-620 colon): > 100 µM
- TGI (SW-620 colon): > 100 µM
- GI50 (SF-268 CNS): 81.6 µM
- TGI (SF-268 CNS): > 100 µM
- GI50 (OVCAR-8 ovarian): > 100 µM
- TGI (OVCAR-8 ovarian): > 100 µM
- GI50 (HT29 colon): > 100 µM
- TGI (HT29 colon): > 100 µM
- GI50 (COLO 205 colon): > 100 µM
- TGI (COLO 205 colon): > 100 µM
- GI50 (RPMI-8226 leukemia): > 100 µM
- TGI (RPMI-8226 leukemia): > 100 µM
- GI50 (OVCAR-4 ovarian): > 100 µM
- TGI (OVCAR-4 ovarian): > 100 µM

Structure (SMILES): COc1ccc2nc3ccccc3c(NCCCCCCN(CCCl)CCCl)c2c1
- TGI (TK-10 renal): 23.8 µM
- TGI (DLD-1 colon): 2.2 µM
- TGI (MCF7 breast): 0.157 µM
- TGI (M19-MEL melanoma): 5.12 µM
- TGI (HCT-116 colon): 1.39 µM
- TGI (KM20L2 colon): 2.07 µM
- TGI (SNB-19 CNS): 3.45 µM
- TGI (MDA-N): 0.656 µM
- TGI (SK-MEL-28 melanoma): 76.1 µM
- TGI (HL-60(TB) leukemia): 0.592 µM
- TGI (LXFL 529 NSCLC): 1.72 µM
- TGI (SR leukemia): 0.346 µM
- TGI (IGROV1 ovarian): 3.85 µM
- TGI (OVCAR-3 ovarian): 3.14 µM
- TGI (SNB-75 CNS): 0.0924 µM
- TGI (SF-295 CNS): 1.01 µM
- TGI (U251 CNS): 1.57 µM
- TGI (EKVX NSCLC): 4.22 µM
- TGI (SK-OV-3 ovarian): 2.74 µM
- TGI (SNB-78 CNS): 2.13 µM
- TGI (SK-MEL-5 melanoma): 1.64 µM
- TGI (OVCAR-5 ovarian): 1.9 µM
- TGI (UO-31 renal): 0.513 µM
- TGI (HOP-62 NSCLC): 2.42 µM
- TGI (KM12 colon): 1.14 µM
- TGI (RXF-631 renal): 1.96 µM
- TGI (LOX IMVI melanoma): 0.0394 µM
- TGI (A549 NSCLC): 6.06 µM
- TGI (DMS 273 small cell lung): 0.206 µM
- TGI (NCI-H460 lung): 0.853 µM
- TGI (MDA-MB-231 breast): 3.37 µM
- TGI (DU-145 prostate): 1.47 µM
- TGI (CAKI-1 renal): 0.197 µM
- TGI (UACC-257 melanoma): > 22.9 µM
- TGI (M14 melanoma): 0.514 µM
- TGI (K-562 leukemia): > 18.5 µM
- TGI (SW-620 colon): 0.472 µM
- TGI (SF-268 CNS): 1.18 µM
- TGI (NCI-H226 lung): 1.53 µM
- TGI (HT29 colon): 1.28 µM
- TGI (COLO 205 colon): 0.107 µM
- TGI (OVCAR-4 ovarian): 1.05 µM
